Tests used:
[1] = system: CEM-MTX (MTX-resistant mutant of CEM, mutation in the RFC); assay: MTT cell growth inhibition, MTX-resistant CEM-MTX cells (Example 4); assay type: cell-based, human; conditions: for EC50: 72 hours, MTT assay, read-out: EC50, nMol CEM-MTX
Description: A series of methotrexate derivatives were screened for their inhibitory effect on cell growth. Three tumor cell lines were used for this screen: i) human leukemia cell line CCRF-CEM which is MTX-sensitive (herein denoted as CEM), ii) a mutant of CEM cell line which is MTX-resistant due to a mutation in the RFC (herein denoted as CEM-MTX; provided by Dr. Y. Assraf, Technion, Israel), and iii) rat C6 glioma cell line.
(§1) Cells were seeded at a density of 10^4 cells/ml in RPMI medium supplemented with 10% FCS in 96 well plates. The cultured cells were incubated, during their linear growth phase, in the presence and absence of various concentrations of MTX derivatives. The tested compounds were prepared as 1 mM stock in absolute ethanol or DMSO and were diluted into the medium. The highest vehicle presence in the assay was 5% of the vehicle. After 72 hours at 37° C. the cytotoxic effect on the cells was estimated by using the colorimetric MTT assay (Mosmann (1983) J. Immunol Methods 65: 55-63) that measures mitochondrial reductase activity and serves for quantitative assessment of cellular viability. Drug concentration required for inhibiting the growth of 50% of cell population in culture over a 72 hour period incubation, is defined as EC50.
The EC50 values were calculated from dose response curves for each tested compound.

[2] = system: human leukemia cell line CCRF-CEM (CEM); assay: MTT cell growth inhibition, CEM cells (Example 4); assay type: cell-based; conditions: 72 hours, MTT assay; read-out: EC50, nMol CEM
Description: as §1, with “A series of methotrexate derivatives were screened for their inhibitory effect on cell growth. Three tumor cell lines were used for this screen: i) human leukemia cell line CCRF-CEM which is MTX-sensitive (herein denoted as CEM), ii) a mutant of CEM cell line which is MTX-resistant due to a mutation in the RFC (herein denoted as CEM-MTX; provided by Dr. […], Technion, Israel), and iii) rat C6 glioma cell line. Cells” for “Cells”, “[…] The EC50 values were calculated from dose response curves” for “Drug concentration required”, “each tested compound.” for “inhibiting the growth of 50% of cell population in culture over a 72 hour period incubation, is defined as EC50.”

[3] = system: Friend cells (an erythroleukemic cell line); assay: MTT cytotoxicity, Friend cells (Example 5); assay type: cell-based; conditions: 72 hour
Description: The toxicity of methotrexate derivatives of the invention (DP-MTX) was evaluated in an additional cell-culture system. The doses required to inhibit the growth of cultured Friend cells (an erythroleukemic cell line) by 50%, over a 72 hour period (ED50), were determined using a mitochondrial viability (MTT) endpoint assay.
Friend cells were seeded at a density of 10^4 cells/ml in RPMI medium supplemented with 10% FCS in 96 well plates. The cultured cells were incubated, during their linear growth phase, in the presence and absence of various concentrations of MTX derivatives. After 72 hours at 37° C., cell viability was estimated by using the colorimetric MTT assay.

rat C6 glioma cell line = assay: MTT cell growth inhibition, C6 glioma cells (Example 4); assay type: cell-based; conditions: 72 hours, MTT assay; read-out: EC50, nMol C6 glioma
Description: as §1, with “A series of methotrexate derivatives were screened for their inhibitory effect on cell growth. Three tumor cell lines were used for this screen: i) human leukemia cell line CCRF-CEM which is MTX-sensitive (herein denoted as CEM), ii) a mutant of CEM cell line which is MTX-resistant due to a mutation in the RFC (herein denoted as CEM-MTX; provided by Dr. […], Technion, Israel), and iii) rat C6 glioma cell line. Cells” for “Cells”, “[…] The EC50 values were calculated from dose response curves” for “Drug concentration required”, “each tested compound.” for “inhibiting the growth of 50% of cell population in culture over a 72 hour period incubation, is defined as EC50.”

PLA2 = conditions: isoform not stated; read-out: IC50 of known inhibitors of PLA2; cited from earlier work
[4] = system: RFC-mediated MTX-resistant cell line (L1210-MTX); assay: MTT cytotoxicity, L1210-MTX cells (Example 9); assay type: cell-based; conditions: Mus musculus
L1210 = assay: MTT cytotoxicity, parent L1210 cells (Example 9); assay type: cell-based; conditions: Mus musculus

Question: With `CCCCCCCCCCCCOC(=O)CC[C@H](NC(=O)c1ccc(N(C)Cc2cnc3nc(N)nc(N)c3n2)cc1)C(=O)O` [γ-C12H25-MTX, γ-dodecylate-MTX] as the compound, how does the “inhibiting the growth of the MTX-resistant cell line, CEM-MTX (in words)” value (“inhibiting the growth” below) [1] read?
Answer: not effective

Question: And the EC50 [1]?
Answer: 4.86 µM

Question: What about the EC50 [2] of the same compound?
Answer: 0.013 µM

Question: Which results are given for `CCCCCCCCCCCCCCCCCC(=O)OC[C@H](COP(=O)([O-])OCC[N+](C)(C)C)OC(=O)CCCCCCCNC(=O)C(CCC(=O)O)NC(=O)c1ccc(N(C)Cc2cnc3nc(N)nc(N)c3n2)cc1` (stereo partly drawn) [DP-MTX-142, 1-Stearoyl-2-[8-(α-MTX amido)-Octanoyl]-sn-Glycero-3-phosphocholine]?
Answer: ED50 [3]: 3000 nmol; EC50 (rat C6 glioma cell line): 36 µM; EC50 [1]: 11.6 µM; EC50 [2]: 6.34 µM

Question: For `CC(Cc1ccc(O)c(O)c1)C(C)Cc1ccc(O)c(O)c1` (stereo not drawn) [NDGA], which IC50 (PLA2) is on record?
Answer: 40 µM

Question: Which results are given for `CCCCCCCCCCCCCCCCCC(=O)OC[C@H](COP(=O)([O-])OCC[N+](C)(C)C)OC(=O)CCNC(=O)C(CCC(=O)O)NC(=O)c1ccc(N(C)Cc2cnc3nc(N)nc(N)c3n2)cc1` (stereo partly drawn) [DP-MTX-93, 1-Stearoyl-2-[3-(α-MTX amido)-Propanoyl]-sn-Glycero-3-phosphocholine]?
Answer: ED50 [3]: 97.5 nmol; EC50 (rat C6 glioma cell line): 0.417 µM; EC50 [1]: 4.65 µM; EC50 [2]: 0.027 µM

Question: With `CCCCCCCCCCCCCCCCCC(=O)OC[C@H](COP(=O)([O-])OCC[N+](C)(C)C)OC(=O)CCCNC(=O)C(CCC(=O)O)NC(=O)c1ccc(N(C)Cc2cnc3nc(N)nc(N)c3n2)cc1` (stereo partly drawn) [DP-MTX-129, 1-Stearoyl-2-[4-(α-MTX amido)-Butanoyl]-sn-Glycero-3-phosphocholine] as the compound, how does the “ED50” value [3] read?
Answer: 97.5 nmol

Question: And the EC50 (rat C6 glioma cell line)?
Answer: 3.11 µM

Question: What about the EC50 [1] of the same compound?
Answer: 5.98 µM

Question: What about the EC50 [2] of the same compound?
Answer: 0.821 µM

Question: What does the source list for `CCCCCCCCCCCCCCCCCC(=O)OC[C@H](COP(=O)([O-])OCC[N+](C)(C)C)OC(=O)CCCCCNC(=O)C(CCC(=O)O)NC(=O)c1ccc(N(C)Cc2cnc3nc(N)nc(N)c3n2)cc1` (stereo partly drawn) [DP-MTX-106, 1-Stearoyl-2-[6-(α-MTX amido)-Hexanoyl]-sn-Glycero-3-phosphocholine]?
Answer: ED50 [3]: 390 nmol; EC50 (rat C6 glioma cell line): 3.22 µM; EC50 [1]: 8.4 µM; EC50 [2]: 0.499 µM

Question: With `CCCCCCCCCCCCCCCCCC(=O)OC[C@H](COP(=O)([O-])OCC[N+](C)(C)C)OC(=O)CCCCCCCNC(=O)[C@H](CCC(=O)OCCCCCCCCCCCC)NC(=O)c1ccc(N(C)Cc2cnc3nc(N)nc(N)c3n2)cc1` [DP-MTX-127, 1-Stearoyl-2-[8-(γ-dodecylate-α-MTX amido)-Octanoyl]-sn-Glycero-3-phosphocholine] as the compound, how does the EC50 (rat C6 glioma cell line) read?
Answer: 0.795 µM

Question: Which EC50 (rat C6 glioma cell line) does the source give for `CCCCCCCCCCCCOC(=O)CC[C@H](NC(=O)c1ccc(N(C)Cc2cnc3nc(N)nc(N)c3n2)cc1)C(=O)OCCCCCCCCCCCC` [α-C12H25-MTX-γ-C12H25, α-dodecylate-MTX-γ-dodecylate] here?
Answer: 0.807 µM

Question: And the “inhibiting the growth” value [1]?
Answer: not effective

Question: And the EC50 [1]?
Answer: 5.09 µM

Question: And the EC50 [2]?
Answer: 4.86 µM

Question: Which “inhibiting the growth” value [1] does the source give for `CCCCCCCCCCCCOC(=O)[C@H](CCC(=O)O)NC(=O)c1ccc(N(C)Cc2cnc3nc(N)nc(N)c3n2)cc1` [α-C12H25-MTX, α:-dodecylate-MTX] here?
Answer: not effective

Question: And the EC50 [1]?
Answer: 9.42 µM

Question: And the EC50 [2]?
Answer: 0.088 µM

Question: Which EC50 [4] does the source give for `CC(=O)O[C@H]1C(=O)[C@@]2(C)[C@H]([C@H](OC(=O)c3ccccc3)[C@]3(O)C[C@H](OC(=O)[C@H](O)[C@@H](NC(=O)c4ccccc4)c4ccccc4)C(C)=C1C3(C)C)[C@]1(OC(C)=O)CO[C@@H]1C[C@@H]2O` [TAX, Taxol] here?
Answer: 0.008 µM

Question: What about the EC50 (L1210) of the same compound?
Answer: 0.008 µM

Question: With `CCN(CC)CCCC(C)Nc1c2ccc(Cl)cc2nc2ccc(OC)cc12` (stereo not drawn) [Quinacrine] as the compound, how does the IC50 (PLA2) read?
Answer: 390 µM

Question: Which EC50 [1] does the source give for `CCCCCCCCCCCCCCCCCC(=O)OC[C@H](COP(=O)([O-])OCC[N+](C)(C)C)OC(=O)CCNC(=O)[C@H](CCC(=O)OCCCCCCCCCCCC)NC(=O)c1ccc(N(C)Cc2cnc3nc(N)nc(N)c3n2)cc1` [DP-MTX-128, 1-Stearoyl-2-[3-(γ-dodecylate-α-MTX amido)Propanoyl]-sn-Glycero-3-phosphocholine] here?
Answer: 1.6 µM

Question: What about the EC50 [2] of the same compound?
Answer: 0.771 µM

From patent US6774121B1, “Phospholipid prodrugs of anti-proliferative drugs” (D-Pharm, Ltd., priority 1999, dated 2004)
